Values quoted from earlier work in patent publication US11000475B2, “Ophthalmic solution of difluprednate” (Sun Pharma Advanced Research Company Limited, priority 2015, dated 2021).

CCCC(=O)O[C@]1(C(=O)COC(C)=O)CCC2[C@@H]3CC(F)C4=CC(=O)C=C[C@]4(C)C3(F)[C@@H](O)C[C@@]21C (stereo partly shown) [Difluprednate]
solubility in aqueous vehicle: practically insoluble
